7 compounds from publication PMC10718593, “Rational design, synthesis, molecular modeling, biological activity, and mechanism of action of polypharmacological norfloxacin hydroxamic acid derivatives” (RSC Medicinal Chemistry, 2023) can be followed below.

SMILES strings stand for the structures. In brackets after ≈: the same amount, converted by molar mass.

The experiment relates to E. coli. Description: microbe, parasite or virus in culture. The arrangement: Minimal inhibitory concentration, bacterial growth inhibition. The conditions noted are these: Escherichia coli. The protocol:
Minimal inhibitory concentrations (MICs) were determined against a panel of test strains comprising Gram-negative, Gram-positive, and mycobacteria, including a fluoroquinolone-resistant, clinical isolate of E. coli and an MRSA strain that is also resistant to norfloxacin and ciprofloxacin (Table 1).
With `CCn1cc(C(=O)NO)c(=O)c2cc(F)c(N3CCN(C)CC3)cc21` [11a], the MIC was 0.18 µM (≈ 0.0627 µg/mL).
The result for `CCCCCN1CCN(c2cc3c(cc2F)c(=O)c(C(=O)NO)cn3CC)CC1` [11d, 1-ethyl-6-fluoro-1,4-dihydro-N-hydroxy-7-(4-pentylpiperazin-1-yl)-4-oxoquinoline-3-carboxamide] reads 0.3 µM (≈ 0.121 µg/mL); that for `CCn1cc(C(=O)NO)c(=O)c2cc(F)c(N3CCN(Cc4ccc(Cl)cc4)CC3)cc21` [11f], 1.08 µM (≈ 0.496 µg/mL); that for `CCn1cc(C(=O)O)c(=O)c2cc(F)c(N3CCN(CN4CCCCC4)CC3)cc21` [19a, 1-ethyl-6-fluoro-1,4-dihydro-4-oxo-7-(4-((piperidin-1-yl)methyl)piperazin-1-yl)quinoline-3-carboxylic acid], 0.3 µM (≈ 0.125 µg/mL).
Next, `CCn1cc(C(=O)NO)c(=O)c2cc(F)c(N3CCN(CN4CCOCC4)CC3)cc21` [20b]: 0.28 µM (≈ 0.121 µg/mL); `CCn1cc(C(=O)NO)c(=O)c2cc(F)c(N3CCN(CN4C(=O)CCC4=O)CC3)cc21` [23a, 1-ethyl-6-fluoro-1,4-dihydro-N-hydroxy-4-oxo-7-(4-((2,5-dioxopyrrolidin-1-yl)methyl)piperazin-1-yl)quinoline-3-carboxamide]: 0.56 µM (≈ 0.249 µg/mL); `CCn1cc(C(=O)O)c(=O)c2cc(F)c(N3CCN(CNc4ccc([N+](=O)[O-])cc4)CC3)cc21` [compound 25, 25]: 0.266 µM (≈ 0.125 µg/mL).
